Test results from patent US20170112741A1, “AGENT FOR AMELIORATING SKIN SYMPTOM, HAIR GROWTH AGENT OR SLIMMING AGENT” (GOLDCREST MEDICINE INSTITUTE CO., LTD., priority 2014, published 2017).

Key:
Assay type in all cases: in vivo, human
senile plaques = assay: Change in 5 senile plaques on the back of both hands of patient A under orally administered cabergoline
Source text: To find out the pharmaceutical effect of orally administered cabergoline, a change in the symptom of 5 senile plaques occurring on the back of both hands of patient A was investigated for 10 weeks from Jun. 20, 2013 (Thursday) to Aug. 29, 2013 (Thursday).
Patient A was a person with prolactin-producing pituitary adenoma. Before the clinical test of the treatment, patient A had dark brown circle-like senile plaques, specifically, 3 plaques on the back of the left hand (long diameter 11 mm×short diameter 8 mm, long diameter 8 mm×short diameter 6 mm, and long diameter 7 mm×short diameter 5 mm) and 2 plaques on the back of the right hand (long diameter 10 mm×short diameter 8 mm and long diameter 7 mm×short diameter 6 mm).
According to the doctor's instruction, oral administration was performed twice/week, on Monday and Thursday, for the first 4 weeks (from June 20 to July 15), and the dose was 2 mg/4 weeks.
A total of 1 mg of cabergoline were orally administered by this 4-week administration (administration dates are as follows: July 18, July 25, August 1, and August 8).
The cabergoline administration on week 9 and week 10 was performed on August 15 (Thursday) and August 22 (Thursday).

seborrheic keratosis = assay: Treatment of seborrheic keratosis generated from senile plaque by oral cabergoline; conditions: patient A
Source text: Investigation was made for the treatment of seborrheic keratosis generated from senile plaque. On the back side of the wrist of the right hand of patient A, there was seborrheic keratosis with width of 15 mm×length of 10 mm, which had remained as a problem for 13 years. In summer, elevation of the skin of about 4 mm with blackish brown color occurred.
Furthermore, 2 years ago, seborrheic keratosis with width of 13 mm×length of 9 mm was caused from senile plaque on the back of the right hand, and elevation of the skin of about 2 mm with dark brown color was recognized. […] Thus, it is recognized that the seborrheic keratosis with a short clinical history is more responsive to the treatment.

head hair / bald area = assay: Hair growth on the head of patient A, photographs before and after oral cabergoline
Source text: According to the photograph (1) of patient A (FIG. 1) taken at a restaurant during travel in Shonai region of Yamagata Prefecture on Sep. 16, 2010, the head of patient A from the upper forehead to the crown was quite bald. Only a small amount of hair was left right above the forehead. Patient A was […] at the time of taking the photo. Since the cabergoline administration was started on Jun. 20, 2013, patient A was […] at that time, which was 2 years and 9 months after taking the photograph (1), and thus, aging further progressed so that the hair became thinner and the hair loss progressed.
The image of the occipital region of patient A taken from the back side on Sep. 16, 2010, is shown in the photograph (2) (FIG. 2).
In the period from Jun. 20, 2013 (Thursday) to Jul. 15, 2013 (Monday), one tablet of 0.25 mg cabergoline was orally administered twice per week, on Monday and Thursday, and thus a total of 2 mg of cabergoline was administered over one month. From July 18, the administration of cabergoline was changed from two tablets per week to one tablet per week. The total dose of cabergoline administered from Jul. 18, 2013 to Jan. 20, 2014 was about 6 mg, and thus, the total amount of cabergoline administered after the start of administration was calculated to be 8 mg.
Images of the frontal region and the occipital region of patient A taken on Feb. 27, 2014 are shown as photograph (3) (FIG. 3) and photograph (4) (FIG. 4), respectively.

[1] = Slimming effect of cabergoline 0.25 mg/week in patient A
Method: Due to an illness, patient A had to undergo the cabergoline treatment from the end of June of year 2013, and for this reason, attempted to lose weight again. Since it was expected that the body weight would be gained back, the target value was set at 56.5 kg, and a long-term plan without any exercise or restricted diet was adopted. However, regular meals were taken and only the overeating was strictly avoided.
Meanwhile, since cabergoline was administered at 0.25 mg/week for 3 months of the measurement period, the total dose of cabergoline was calculated to be 3 mg. […] In this regard, it is considered that no side effect would appear with administration of such a small amount.

[2] = Feb. 27, 2014 vs Sep. 16, 2010, oral cabergoline since Jun. 20, 2013
[3] = patient A, 0.25 mg/week, November 14
[4] = patient A, 0.25 mg/week, November 28
[5] = patient A, 0.25 mg/week, October 3
[6] = patient A, 0.25 mg/week, October 17
[7] = patient A, 0.25 mg/week, October 31
[8] = patient A, 0.25 mg/week, Sep. 5, 2013 (start of measurement period)
[9] = patient A, 0.25 mg/week, September 19

With `C=CCN1C[C@H](C(=O)N(CCCN(C)C)C(=O)NCC)C[C@@H]2c3cccc4[nH]cc(c34)C[C@H]21` [cabergoline] the “color of the senile plaques” value (senile plaques; August, 6 weeks after starting cabergoline administration) was “started to become lighter”, the “state of the senile plaques” value (senile plaques; end of August, after 10 weeks oral cabergoline) was “clearly disappeared” and the “state of the 5 senile plaques” value (senile plaques; first 4 weeks (June 20 to July 15), oral twice/week, 2 mg/4 weeks, direct observation) was “no change was recognized”. The “skin of the back of both hands” value (senile plaques; from end of August, previously flecked with pigmented macules and dry) was “gradually started to become white and have lighter skin texture”, the “size of the senile plaques” value (senile plaques; from mid-August, one tablet (0.25 mg)/week oral) was “started to show a tendency to shrink in size” and the “Color of seborrheic keratosis on back side of right wrist” value (seborrheic keratosis; 13 years history, oral cabergoline over the last year) was “faded from blackish brown to brown”. The “Color of seborrheic keratosis on the back of the right hand” value (seborrheic keratosis; as of March 22, initially dark brown) was “faded to pale yellow brown”, the “Elevation of the skin, seborrheic keratosis on back side of right wrist” value (seborrheic keratosis; lesion width 15 mm×length 10 mm, 13 years history, elevation about 4 mm, oral cabergoline over the last year) was “became flattened” and the “Bald area, frontal region of the head (photograph (3))” value (head hair / bald area; [2]) was “clearly reduced”. For the same compound, the “Bald area, region from the crown to the occipital region (photograph (4) vs (2))” value (head hair / bald area; [2]) was “the bald area was reduced”, the “Hairs in the region from the crown to the occipital region” value (head hair / bald area; [2]) was “hairs were increased” and the “Hair in the frontal region of the head (photograph (3))” value (head hair / bald area; Feb. 27, 2014 vs Sep. 16, 2010, oral cabergoline since Jun. 20, 2013, about 8 mg in total by Jan. 20, 2014) was “short black hairs were found in the previously bald region”. The Hungry feeling ([1]; patient A during weight loss under cabergoline) was “no hungry feeling”, the Waist size ([1]; patient A under cabergoline, reduced from 91 cm at a maximum) was 83 cm and the Body weight course ([1]; patient A under cabergoline, target value 56.5 kg, no exercise or restricted diet) was “steadily reduced to the target value”. The “Obesity BMI” value ([1]; patient A, 0.25 mg/week, December 12) was 24.0, the “Body weight” value ([1]; patient A, 0.25 mg/week, December 12 (15 weeks)) was 56.1 kg and the “Weight loss” value ([1]; patient A, 0.25 mg/week, December 12, since previous measurement) was 0.7 kg. For the same compound, the “Total weight loss (%)” value ([1]; patient A, 0.25 mg/week, December 12, vs Sep. 5, 2013) was −10.0%, the “Body weight” value [1, 3] was 57.5 kg and the “Obesity BMI” value [1, 3] was 24.6. The “Weight loss” value ([1]; patient A, 0.25 mg/week, November 14, since previous measurement) was 0.8 kg, the “Total weight loss (%)” value ([1]; patient A, 0.25 mg/week, November 14, vs Sep. 5, 2013) was −7.7% and the “Body weight” value [1, 4] was 56.8 kg. The “Obesity BMI” value [1, 4] was 24.3, the “Weight loss” value ([1]; patient A, 0.25 mg/week, November 28, since previous measurement) was 0.7 kg and the “Total weight loss (%)” value ([1]; patient A, 0.25 mg/week, November 28, vs Sep. 5, 2013) was −8.9%. The “Body weight” value [1, 5] was 60.1 kg, the “Obesity BMI” value [1, 5] was 25.7 and the “Weight loss” value ([1]; patient A, 0.25 mg/week, October 3, since previous measurement) was 1.2 kg. For the same compound, the “Total weight loss (%)” value ([1]; patient A, 0.25 mg/week, October 3, vs Sep. 5, 2013) was −3.5%, the “Body weight” value [1, 6] was 59.1 kg and the “Obesity BMI” value [1, 6] was 25.2. The “Weight loss” value ([1]; patient A, 0.25 mg/week, October 17, since previous measurement) was 1.0 kg, the “Total weight loss (%)” value ([1]; patient A, 0.25 mg/week, October 17, vs Sep. 5, 2013) was −5.1% and the “Body weight” value [1, 7] was 58.3 kg. The “Obesity BMI” value [1, 7] was 24.9, the “Weight loss” value ([1]; patient A, 0.25 mg/week, October 31, since previous measurement) was 0.8 kg and the “Total weight loss (%)” value ([1]; patient A, 0.25 mg/week, October 31, vs Sep. 5, 2013) was −6.4%. The “Body weight” value [1, 8] was 62.3 kg, the “Obesity BMI” value [1, 8] was 26.6 and the “Body weight” value [1, 9] was 61.3 kg. The “Obesity BMI” value [1, 9] was 26.2, the “Weight loss” value ([1]; patient A, 0.25 mg/week, September 19, since previous measurement) was 1.0 kg and the “Total weight loss (%)” value ([1]; patient A, 0.25 mg/week, September 19, vs Sep. 5, 2013) was −1.6%. For the same compound, the “Time after which BMI was decreased to a normal level” value ([1]; patient A, oral administration, normal BMI 21.5 to 24.9) was 8 weeks, the “Body weight” value ([1]; patient A, Mar. 14, 2015) was 54.2 kg and the “Obesity BMI” value ([1]; patient A, Mar. 14, 2015) was 23.2. The “Weight loss” value ([1]; patient A, Mar. 14, 2015, since previous measurement) was 1.9 kg and the “Total weight loss (%)” value ([1]; patient A, Mar. 14, 2015, vs Sep. 5, 2013) was −13.0%.
